Test results: patent US11524963B2, “Substituted pyrazolo[3,4-d]pyrimidines as RET kinase inhibitors” (Array Biopharma Inc., priority 2018, dated 2022)
Changes are numbered by the printed parent chain.

What was measured:
RET kinase G810R = RET kinase G810R (Homo sapiens, UniProt P07949, G810R); assay: RET Enzyme Assay (HTRF KinEASE-TK), G810R; assay type: biochemical
RET kinase Wild Type = RET kinase Wild Type (Homo sapiens, UniProt P07949); assay: RET Enzyme Assay (HTRF KinEASE-TK), Wild Type; assay type: biochemical
RET kinase M918T = RET kinase M918T (Homo sapiens, UniProt P07949, M918T); assay: RET Enzyme Assay (HTRF KinEASE-TK), M918T; assay type: biochemical
RET kinase G810S = RET kinase G810S (Homo sapiens, UniProt P07949, G810S); assay: RET Enzyme Assay (HTRF KinEASE-TK), G810S; assay type: biochemical
[1] = target: T1, HEK-293 cells expressing a Kif5b-RET fusion protein (Homo sapiens, UniProt P07949); assay: RET Cell Assay (phospho-RET Tyr1062); assay type: cell-based; conditions: 1 hour with compound, phospho-RET(Tyr1062) normalized to GAPDH, read-out: KIF5B-RET pTYR1062 Cell IC50
T1 construct: expressed in transfected cells; host or cells: HEK-293; the other entry of the earlier key: KIF5B (P33176, Kinesin-1 heavy chain)
T1 sequence (P07949 713-1063 limits assumed): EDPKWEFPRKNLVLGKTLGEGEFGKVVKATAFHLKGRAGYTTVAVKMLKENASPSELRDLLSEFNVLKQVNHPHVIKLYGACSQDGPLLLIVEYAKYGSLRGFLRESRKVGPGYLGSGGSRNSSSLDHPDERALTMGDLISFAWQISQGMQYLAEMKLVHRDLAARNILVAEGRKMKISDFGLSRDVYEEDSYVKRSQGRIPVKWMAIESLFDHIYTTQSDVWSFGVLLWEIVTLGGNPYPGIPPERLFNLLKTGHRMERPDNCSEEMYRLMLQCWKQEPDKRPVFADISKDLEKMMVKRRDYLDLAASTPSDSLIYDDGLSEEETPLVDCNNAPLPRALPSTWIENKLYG
Experimental: (§1) The cellular potency of compounds inhibiting RET kinase were determined in HEK-293 cells expressing a Kif5b-RET fusion protein. Briefly, HEK-293 cells expressing a Kif5b-RET fusion protein were plated at 50K cells/well in 96 well poly-D-Lysine coated plates the day prior to the assay. The cells were incubated for 1 hour with test compound in DMEM (Dulbecco's Modified Eagle Medium) at a final DMSO concentration of 0.5%. […] After 1 hour the media was removed, the cells were fixed with 3.8% formaldehyde for 20 min, washed with PBS, and permeabilized for 10 min with 100% methanol. […] All antibodies were diluted in LI-COR Block containing 0.05% Tween. The plates were washed with PBS-0.05% Tween20, 100 μL PBS is added to each well, and the plates were read on a LI-COR Aerius fluorescent plate reader. The phospho-RET signal was normalized to the GAPDH signal. 100 POC (percent of control) was determined using no test compounds and 0 POC was determined using 1 μM of a control inhibitor. The POC values were fit to a 4 parameter logistic curve. The IC50 value is the point where the curve crosses 50 POC.

RET kinase V804M = RET kinase V804M (Homo sapiens, UniProt P07949, V804M); assay: RET Enzyme Assay (HTRF KinEASE-TK), V804M; assay type: biochemical
[2] = target: T2, HEK-293 cells expressing a G810R mutant RET Kif5b-RET fusion protein (Homo sapiens, UniProt P07949, G810R); assay: RET G810R Mutant Cell Assay (phospho-RET Tyr1062); assay type: cell-based; conditions: 1 hour with compound, phospho-RET(Tyr1062) normalized to GAPDH
T2 construct: expressed in transfected cells; host or cells: HEK-293; the other entry of the earlier key: KIF5B (P33176, Kinesin-1 heavy chain)
T2 sequence (P07949 713-1063 G810R limits assumed): T1 sequence (P07949 713-1063 limits assumed) with G98R
Experimental: RET G810R and G810S Mutant Cell Assay
as §1, with “expressing a G810R or G810S mutant RET Kif5b-RET fusion” for “expressing a Kif5b-RET fusion”, “μL PBS was added to” for “μL PBS is added to”, “POC values are fit to” for “POC values were fit to”

RET kinase G810S, sequence (P07949 29-1114 G810S): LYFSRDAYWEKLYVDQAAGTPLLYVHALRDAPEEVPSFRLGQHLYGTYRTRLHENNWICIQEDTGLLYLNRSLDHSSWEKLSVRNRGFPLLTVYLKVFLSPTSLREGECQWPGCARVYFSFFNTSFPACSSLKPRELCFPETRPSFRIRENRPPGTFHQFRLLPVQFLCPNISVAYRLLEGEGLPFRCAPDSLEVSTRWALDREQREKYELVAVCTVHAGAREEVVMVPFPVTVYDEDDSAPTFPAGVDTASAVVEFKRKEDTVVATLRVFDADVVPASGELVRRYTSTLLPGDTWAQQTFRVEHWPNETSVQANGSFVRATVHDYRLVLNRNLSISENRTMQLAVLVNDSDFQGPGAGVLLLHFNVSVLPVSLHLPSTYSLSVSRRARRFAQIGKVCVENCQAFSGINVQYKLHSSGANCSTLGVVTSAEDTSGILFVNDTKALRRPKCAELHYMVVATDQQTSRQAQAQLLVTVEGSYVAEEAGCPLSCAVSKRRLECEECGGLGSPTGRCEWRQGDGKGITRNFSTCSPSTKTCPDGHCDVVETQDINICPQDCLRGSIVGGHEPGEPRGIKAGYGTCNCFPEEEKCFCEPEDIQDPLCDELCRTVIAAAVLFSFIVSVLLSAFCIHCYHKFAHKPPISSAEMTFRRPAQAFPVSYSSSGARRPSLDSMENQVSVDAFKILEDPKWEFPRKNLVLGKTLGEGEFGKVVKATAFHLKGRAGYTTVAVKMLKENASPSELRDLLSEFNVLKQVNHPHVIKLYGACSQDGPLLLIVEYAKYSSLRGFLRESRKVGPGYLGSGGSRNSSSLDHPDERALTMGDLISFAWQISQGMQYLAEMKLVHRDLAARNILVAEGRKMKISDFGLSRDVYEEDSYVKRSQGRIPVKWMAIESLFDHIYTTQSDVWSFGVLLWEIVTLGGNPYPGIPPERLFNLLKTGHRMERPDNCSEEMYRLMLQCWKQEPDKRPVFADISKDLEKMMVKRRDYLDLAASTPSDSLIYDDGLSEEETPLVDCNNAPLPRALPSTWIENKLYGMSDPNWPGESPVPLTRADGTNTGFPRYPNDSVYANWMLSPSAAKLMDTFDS
RET kinase M918T, sequence (P07949 29-1114 M918T): as the sequence (P07949 29-1114 G810S) above, with S782G, M890T counted along it
RET kinase G810R, sequence (P07949 29-1114 G810R): as the sequence (P07949 29-1114 G810S) above, with S782R counted along it
RET kinase Wild Type, sequence (P07949 29-1114): as the sequence (P07949 29-1114 G810S) above, with S782G counted along it
RET kinase V804M, sequence (P07949 29-1114 V804M): as the sequence (P07949 29-1114 G810S) above, with V776M, S782G counted along it

Row | Structure (SMILES) | IC50 (RET kinase G810R) | IC50 (RET kinase Wild Type) | IC50 (RET kinase M918T) | IC50 (RET kinase G810S) | IC50 [1] | IC50 (RET kinase V804M) | IC50 [2]
1 | Cc1cc(-c2nn(C(C)C)c3ncnc(N)c23)n(C2CCCCO2)n1 (centres unmarked) [Example 21, 1-isopropyl-3-(3-methyl-1-(tetrahydro-2H-pyran-2-yl)-1H-pyrazol-5-yl)-1H-pyrazolo[3,4-d]pyrimidin-4-amine] | 19.5 nM | 2.1 nM | 4.1 nM | 17.9 nM | 36 nM | 260 nM | 342 nM
2 | CC(C)n1nc(-c2noc(C3CC3)c2C2=COCCC2)c2c(N)ncnc21 [Example 10, 3-(5-cyclopropyl-4-(3,4-dihydro-2H-pyran-5-yl)isoxazol-3-yl)-1-isopropyl-1H-pyrazolo[3,4-d]pyrimidin-4-amine] | 4.1 nM | 1.5 nM | 2.2 nM | 13.6 nM | 199 nM | 13.8 nM | 
3 | CC(C)n1nc(-c2noc(C3CC3)c2C2=CCC(=O)CC2)c2c(N)ncnc21 [Example 5, 4-(3-(4-amino-1-isopropyl-1H-pyrazolo[3,4-d]pyrimidin-3-yl)-5-cyclopropylisoxazol-4-yl)cyclohex-3-en-1-one] | 7.1 nM | 2.7 nM | 3.2 nM | 11.7 nM | 105 nM | 20.5 nM | 
4 | CC(C)n1nc(-c2noc(C3CC3)c2C2=CCC(O)CC2)c2c(N)ncnc21 (centres unmarked) [Example 14, 4-(3-(4-amino-1-isopropyl-1H-pyrazolo[3,4-d]pyrimidin-3-yl)-5-cyclopropylisoxazol-4-yl)cyclohex-3-en-1-ol] | 4.1 nM | 1.2 nM | 1.5 nM | 4.9 nM | 35 nM | 7 nM | 86 nM
5 | CC(C)n1nc(-c2noc(C3CC3)c2Br)c2c(N)ncnc21 [Example 1, 3-(4-bromo-5-cyclopropylisoxazol-3-yl)-1-isopropyl-1H-pyrazolo[3,4-d]pyrimidin-4-amine] | 3.8 nM | 2.1 nM | 1.8 nM | 11.7 nM | 263 nM | 5.7 nM | 
6 | C=Cc1cc(-c2nn(C(C)C)c3ncnc(N)c23)n(C2CCCCO2)n1 (centres unmarked) [Example 22, 1-isopropyl-3-(1-(tetrahydro-2H-pyran-2-yl)-3-vinyl-1H-pyrazol-5-yl)-1H-pyrazolo[3,4-d]pyrimidin-4-amine] | 16.5 nM | 2.3 nM | 3 nM | 13 nM | 21 nM | 307 nM | 214 nM
7 | CC(C)n1nc(-c2noc(C3CC3)c2C2=CCCCO2)c2c(N)ncnc21 [Example 9, 3-(5-cyclopropyl-4-(3,4-dihydro-2H-pyran-6-yl)isoxazol-3-yl)-1-isopropyl-1H-pyrazolo[3,4-d]pyrimidin-4-amine] | 1.4 nM | 0.3 nM | 0.2 nM | 1.4 nM | 24 nM | 0.6 nM | 137 nM
8 | CC(C)n1nc(-c2cc(C3CC3)nn2C2CCCCO2)c2c(N)ncnc21 (centres unmarked) [Example 19, 3-(3-cyclopropyl-1-(tetrahydro-2H-pyran-2-yl)-1H-pyrazol-5-yl)-1-isopropyl-1H-pyrazolo[3,4-d]pyrimidin-4-amine] | 28.9 nM | 3.9 nM | 6.1 nM | 24.1 nM | 40 nM | 418 nM | 628 nM
9 | CC(C)n1nc(-c2noc(C3CC3)c2C2CCOCC2)c2c(N)ncnc21 [Example 17, 3-(5-cyclopropyl-4-(tetrahydro-2H-pyran-4-yl)isoxazol-3-yl)-1-isopropyl-1H-pyrazolo[3,4-d]pyrimidin-4-amine] | 2.2 nM | 0.7 nM | 0.8 nM | 3.7 nM | 68 nM | 7.5 nM | 264 nM
10 | CC(C)n1nc(-c2noc([C@@H](C)O)c2-c2ccccn2)c2c(N)ncnc21 [Example 18, (R)-1-(3-(4-amino-1-isopropyl-1H-pyrazolo[3,4-d]pyrimidin-3-yl)-4-(pyridin-2-yl)isoxazol-5-yl)ethan-1-ol] | 4.4 nM | 1.1 nM | 1 nM | 4.3 nM | 42 nM | 3.1 nM | 
11 | CC(C)n1nc(-c2noc(C3CC3)c2I)c2c(N)ncnc21 [Example 12, 3-(5-cyclopropyl-4-iodoisoxazol-3-yl)-1-isopropyl-1H-pyrazolo[3,4-d]pyrimidin-4-amine] | 11.4 nM | 5.3 nM | 4.1 nM | 24.3 nM |  | 15.1 nM | 
12 | CC(C)n1nc(-c2noc(C3CC3)c2-c2cccnc2)c2c(N)ncnc21 [Example 7, 3-(5-cyclopropyl-4-(pyridin-3-yl)isoxazol-3-yl)-1-isopropyl-1H-pyrazolo[3,4-d]pyrimidin-4-amine] | 8.4 nM | 7.1 nM | 8.7 nM | 38.9 nM |  | 52.2 nM | 
13 | CC(C)n1nc(-c2noc(C3CC3)c2-c2ncccn2)c2c(N)ncnc21 [Example 11, 3-(5-cyclopropyl-4-(pyrimidin-2-yl)isoxazol-3-yl)-1-isopropyl-1H-pyrazolo[3,4-d]pyrimidin-4-amine] | 3.5 nM | 1.5 nM | 1.2 nM | 4.9 nM | 86 nM | 4.4 nM | 
14 | CC(C)n1nc(-c2noc(C3CC3)c2-c2cnn(C)c2)c2c(N)ncnc21 [Example 3, 3-(5-cyclopropyl-4-(1-methyl-1H-pyrazol-4-yl)isoxazol-3-yl)-1-isopropyl-1H-pyrazolo[3,4-d]pyrimidin-4-amine] | 12.5 nM | 7.1 nM | 12.2 nM | 46.6 nM |  | 52.5 nM | 
15 | CC(C)n1nc(-c2noc(C3CC3)c2-c2ccncc2)c2c(N)ncnc21 [Example 8, 3-(5-cyclopropyl-4-(pyridin-4-yl)isoxazol-3-yl)-1-isopropyl-1H-pyrazolo[3,4-d]pyrimidin-4-amine] | 3.9 nM | 2.9 nM | 3.9 nM | 20.6 nM |  | 29 nM | 
16 | CC(C)n1nc(-c2noc(C3CC3)c2-c2ccccc2)c2c(N)ncnc21 [Example 6, 3-(5-cyclopropyl-4-phenylisoxazol-3-yl)-1-isopropyl-1H-pyrazolo[3,4-d]pyrimidin-4-amine] | 10 nM | 4.7 nM | 4.5 nM | 26.2 nM | 488 nM | 23.9 nM | 
